Common to all, as to type: in vivo
Assay [1] concerns Tetranychus urticae. Briefly: Tetranychus test (OP-resistant/dip treatment). The conditions noted are these: 100 ppm, bean plants dipped, OP-resistant. As for the experimental part:
Tetranychus Test (OP-Resistant/Dip Treatment)
• Solvent: 7 parts by weight of dimethylformamide • Emulsifier: 2 parts by weight of alkylaryl polyglycol ether
To produce a suitable preparation of active compound, 1 part by weight of active compound is mixed with the stated amounts of solvent and emulsifier, and the concentrate is diluted with emulsifier-containing water to the desired concentration.
Bean plants (Phaseolus vulgaris) which are heavily infested by all stages of the greenhouse […] spider mite (Tetranychus urticae) are dipped into a preparation of active compound of the desired concentration.
After the desired period of time, the effect in % is determined. 100% means that all spider mites have been killed; 0% means that none of the spider mites have been killed.

In assay [2] the test system is Botrytis cinerea. Briefly: Botrytis test (bean)/protective. To be noted: 48 h, protective, 2 days after inoculation, read-out: % efficacy. As for the experimental part:
Botrytis Test (Bean)/Protective
• Solvents: 24.5 parts by weight of acetone • 24.5 parts by weight of dimethylacetamide • Emulsifier: 1.0 part by weight of alkylaryl polyglycol ether
To produce a suitable preparation of active compound, 1 part by weight of active compound is mixed with the stated amounts of solvent and emulsifier, and the concentrate is diluted with water to the desired concentration.
To test for protective activity, young plants are sprayed with the preparation of active compound at the stated application rate. After the spray coating has dried on, 2 small pieces of agar colonized by Botrytis cinerea are placed on each leaf. The inoculated plants are placed in a dark chamber at about 20° C. and 100% relative atmospheric humidity.
2 days after the inoculation, the size of the infected areas on the leaves is evaluated. 0% means an efficacy which corresponds to that of the control, whereas an efficacy of 100% means that no infection is observed.

Assay [3] concerns Echinochloa. The experiment in a line: Pre-emergence test, Echinochloa. To be noted: 250 g of ai/ha, after three weeks, 100% = total destruction. On the procedure:
(§1) • Solvent: 5 parts by weight of acetone • Emulsifier: 1 part by weight of alkylaryl polyglycol ether
(§2) To produce a suitable preparation of active compound, 1 part by weight of active compound is mixed with the stated amount of solvent, the stated amount of emulsifier is added and the concentrate is diluted with water to the desired concentration.
(§3) Seeds of the test plants are sown in normal soil. After about 24 hours, the soil is sprayed with the preparation of active compounds such that the particular amounts of active compound desired are applied per unit area. The concentration of the spray liquor is chosen such that the particular amounts of active compound desired are applied in 1000 l of water/ha.
(§4) After three weeks, the degree of damage to the plants is rated in % damage in comparison to the development of the untreated control.
(§5) The figures denote: • 0%=no effect (like untreated control) • 100%=total destruction

The subject of assay [4] is Venturia inaequalis. Briefly: Venturia test (apple)/protective. The conditions noted are these: protective, 10 days after inoculation; for % efficacy: 100 g/ha. On the procedure: (§6) Venturia Test (Apple)/Protective […] To produce a suitable preparation of active compound, 1 part by weight of active compound is mixed with the stated amounts of solvent and emulsifier, and the concentrate is diluted with water to the desired concentration. To test for protective activity, young plants are sprayed with the preparation of active compound at the stated application rate. After the spray coating has dried on, the plants are inoculated with an aqueous conidia suspension of the apple scab pathogen Venturia inaequalis and then remain in an incubation cabin at about 20° C. and 100% relative atmospheric humidity for 1 day.

The subject of assay [5] is peach aphid (Myzus persicae). Briefly: Myzus test. The conditions noted are these: 500 ppm, cabbage leaves dipped. As for the experimental part: Myzus Test • Solvent: 7 parts by weight of dimethylformamide • Emulsifier: 2 parts by weight of alkylaryl polyglycol ether To produce a suitable preparation of active compound, 1 part by weight of active compound is mixed with the stated amounts of solvent and emulsifier, and the concentrate is diluted with emulsifier-containing water to the desired concentration. Cabbage leaves (Brassica oleracea) which are heavily infested by the peach aphid (Myzus persicae) are treated by being dipped into the preparation of active compound of the desired concentration. After the desired period of time, the kill in % is determined. 100% means that all aphids have been killed; 0% means that none of the aphids have been killed.

Assay [6] deals with Setaria. The experiment in a line: Pre-emergence test, Setaria. To be noted: 250 g of ai/ha, after three weeks, 100% = total destruction. On the procedure:
as §1, §2, §3, §4, §5

The test system of assay [7] is Sugar beet. The experiment in a line: Pre-emergence test, sugar beet. The conditions noted are these: 250 g of ai/ha, after three weeks, 100% = total destruction. As for the experimental part: as §1, §2, §3, §4, §5
For assay [8], the system named is larvae of the mustard beetle (Phaedon cochleariae). The experiment in a line: Phaedon larvae test. To be noted: 500 ppm, cabbage leaves dipped. As for the experimental part: (§7) Phaedon larvae Test • Solvent: 7 parts by weight of dimethylformamide • Emulsifier: 2 parts by weight of alkylaryl polyglycol ether To produce a suitable preparation of active compound, 1 part by weight of active compound is mixed with the stated amounts of solvent and emulsifier, and the concentrate is diluted with emulsifier-containing water to the desired concentration. Cabbage leaves (Brassica oleracea) are treated by being dipped into the preparation of active compound of the desired concentration and are populated with larvae of the mustard beetle (Phaedon cochleariae) while the leaves are still moist. After the desired period of time, the kill in % is determined. 100% means that all beetle larvae have been killed; 0% means that none of the beetle larvae have been killed.

The subject of assay [9] is Plasmopara viticola. Briefly: Plasmopara test (grapevine)/protective. The conditions noted are these: 144 h, protective, 6 days after inoculation, read-out: % efficacy. As for the experimental part:
as §6, with “Plasmopara” for “Venturia”, “(Grapevine)/Protective” for “(Apple)/Protective”, “spore” for “conidia”, “Plasmopara viticola” for “the apple scab pathogen Venturia inaequalis”, “day. […] The plants are then moistened and placed in an incubation cabin for 1 day.” for “day.”

The subject of assay [10] is Phytophthora infestans. To be noted: 750 g/ha; protective; tomato; 7 days after inoculation.
Assay [11] has as its system Sphaerotheca fuliginea. The experiment in a line: Sphaerotheca test (cucumber)/protective. The conditions noted are these: 100 g/ha, protective, 7 days after inoculation. As for the experimental part: Sphaerotheca Test (Cucumber)/Protective […] To produce a suitable preparation of active compound, 1 part by weight of active compound is mixed with the stated amounts of solvent and emulsifier, and the concentrate is diluted with water to the desired concentration. To test for protective activity, young plants are sprayed with the preparation of active compound at the stated application rate. After the spray coating has dried on, the plants are inoculated with an aqueous spore suspension of Sphaerotheca fuliginea The plants are then placed in a greenhouse at about 23° C. and a relative atmospheric humidity of about 70%.

Assay [12] has as its system caterpillars of the armyworm (Spodoptera frugiperda). Briefly: Spodoptera frugiperda test. To be noted: 500 ppm, cabbage leaves dipped. On the procedure:
as §7, with “Spodoptera frugiperda” for “Phaedon larvae”, “caterpillars” for “larvae”, “armyworm (Spodoptera frugiperda)” for “mustard beetle (Phaedon cochleariae)”, “caterpillars” for “beetle larvae”

In assay [13] the test system is Alopecurus. The experiment in a line: Pre-emergence test, Alopecurus. To be noted: 250 g of ai/ha, after three weeks, 100% = total destruction. On the procedure: as §1, §2, §3, §4, §5
The subject of assay [14] is Meloidogyne incognita. Briefly: Meloidogyne test. To be noted: 20 ppm, lettuce in sand, 100% = no galls. On the procedure:
Meloidogyne Test • Solvent: 7 parts by weight of dimethylformamide • Emulsifier: 2 parts by weight of alkylaryl polyglycol ether To produce a suitable preparation of active compound, 1 part by weight of active compound is mixed with the stated amounts of solvent and emulsifier, and the concentrate is diluted with water to the desired concentration. Containers are filled with sand, solution of active compound, Meloidogyne incognita egg/larvae suspension and lettuce seeds. The lettuce seeds germinate and the plants develop. On the roots, galls are formed. After the desired period of time, the nematicidal action is determined in % by the gall formation. 100% means that no galls have been formed; 0% means that the number of galls on the treated plants corresponds to that of the untreated control.

As for `Cc1ccc(-c2ccc(Cl)cc2)cc1C1(Cl)C(=O)CC2(CCCCC2)C1=O` (stereo not drawn) [Ex. I-1-1], the “Kill rate in % after 7d” value in assay [1] and in [8] was 100% in each case. Besides, the Emax at 100 g/ha in assay [2] is 96%; in [4] (Venturia inaequalis, 240 h, read-out: % efficacy), 100%; in assay [9], 100%. Besides, the “% damage, Echinochloa” value in assay [3] was determined as 100%. The “Kill rate in % after 6d” value in assay [5] worked out at 80%. Besides, the “% damage, Setaria” value in assay [6] is 90%. Moreover, in assay [7], the “% damage, Sugar beet” value is given as 0%.

Compound `Cc1ccc(-c2ccc(Cl)cc2)cc1C1(Cl)C(=O)CC2(CCCC2)C1=O` (stereo not drawn) [Ex. I-1-3] displayed an Efficacy in % in assay [10] of 80%.

Turning to `Cc1ccc(-c2ccc(Cl)cc2)cc1C1(Cl)C(=O)CC2(CCCCCC2)C1=O` (stereo not drawn) [Ex. I-1-4], the Efficacy in % in assay [10] came out at 90%.

On to `CC1(C)CC(=O)C(Cl)(c2cc(-c3ccc(Cl)cc3)ccc2Cl)C(=O)C1` [Ex. I-2-1], for which the “% efficacy” value in [11] is 97%; in assay [4] it was 73%. The “Kill rate in % after 7d” value in assay [1], in assay [12] and in assay [8] was 100% each time. Moreover, the “% damage, Echinochloa” value in assay [3] is 90%. The “% damage, Alopecurus” value in assay [13] was 70%. Besides, the “% damage, Setaria” value in assay [6] amounted to 80%. For the same compound, the “% damage, Sugar beet” value in [7] was 0%. The compound also showed an Efficacy in % in [10] of 89%. For the same compound, in [14], the “Effect in % after 14d (nematicidal action by gall formation)” value is reported as 90%.

Turning to `Cc1ccc(-c2ccc(Cl)cc2)cc1C1(Cl)C(=O)CC2(CCCC2)CC1=O` [Ex. I-2-2], the “Kill rate in % after 7d” value in assay [1] is reported as 98%; in assay [12], 100%; in [8], 100%. The “% damage, Echinochloa” value in [3] stood at 95%. For the same compound, in assay [13], the “% damage, Alopecurus” value is given as 90%. Also, the “% damage, Setaria” value in [6] came to 90%. Moreover, the “% damage, Sugar beet” value in [7] was 0%.

Regarding `Cc1ccc(-c2ccc(Cl)cc2)cc1C1(Cl)C(=O)CC(C)(C)CC1=O` [Ex. I-2-3], the “Kill rate in % after 7d” value in [1], in assay [12] and in assay [8] was 100% in each case. The “% damage, Echinochloa” value in assay [3] stood at 80%. Moreover, in assay [13], the “% damage, Alopecurus” value was 80%. Further, the “% efficacy” value in assay [4] stood at 86%. For the same compound, the “% damage, Setaria” value in assay [6] came out at 90%. The “% damage, Sugar beet” value in assay [7] turned out to be 0%.

On to `O=C1CC2(CCCC2)CC(=O)C1(Cl)c1cc(Br)ccc1Cl` [Ex. I-2-4], for which the “Kill rate in % after 7d” value in [1] amounted to 80%.

Regarding `O=C1CC2(CCCC2)CC(=O)C1(Cl)c1cc(-c2ccc(Cl)cc2)ccc1Cl` [Ex. I-2-5], the “Kill rate in % after 7d” value is recorded as 98% in assay [1], 100% in assay [12] and 100% in assay [8].

With `CC(C)C1CC(=O)C(Cl)(c2cc(Br)ccc2Cl)C(=O)C1` (stereo not drawn) [Ex. I-2-6], the “Effect in % after 14d (nematicidal action by gall formation)” value in [14] is recorded as 80%.

The record behind these values is patent US7227043B2, “2-phenyl-2-substituted-1,3-diketones” (Bayer CropScience Ag, priority 2002, dated 2007).
